# Assay results published in paper PMC11048566, “The Development of a Regulator of Human Serine Racemase for N-Methyl-D-aspartate Function” (Biomedicines, 2024).
# Where two headings read alike, the source gives them in different places.
# Tests used:
# [1] = target: T1, human serine racemase (hSR) (Homo sapiens, UniProt Q9GZT4); experiment: Two-step enzymatic assay of hSR racemization (hSR, then DAAO/HRP/Amplex Red); assay type: biochemical; details: 0.25 mM ATP
# T1 construct: 6xHis (C); made in house; host or cells: E. coli BL21 (pET42b-hSR)
# T1 sequence (Q9GZT4 1-340): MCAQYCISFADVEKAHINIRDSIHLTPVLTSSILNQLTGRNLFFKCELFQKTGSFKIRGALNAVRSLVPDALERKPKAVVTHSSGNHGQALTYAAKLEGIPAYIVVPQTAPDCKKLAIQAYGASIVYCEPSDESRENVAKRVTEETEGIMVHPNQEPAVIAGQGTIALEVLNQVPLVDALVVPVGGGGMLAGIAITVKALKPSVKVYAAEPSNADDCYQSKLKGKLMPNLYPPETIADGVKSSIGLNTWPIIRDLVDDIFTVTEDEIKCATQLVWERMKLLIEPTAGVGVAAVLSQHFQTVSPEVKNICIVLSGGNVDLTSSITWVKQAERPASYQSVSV
# Procedure: This assay was designed by the formation of D-serine by hSR and the oxidation of D-serine by D-amino acid oxidase (DAAO) and horseradish peroxidase (HRP) with the peroxidase substrate Amplex Red^TM (10-acetyl-3,7-dihydroxyphenoxazine) (Thermo Fisher Scientific, Lagoas Park, Porto Salvo, Portugal). The hSR activity assay reaction was carried out in 100 mM HEPES buffer, pH 8.0, containing 2.4 µg of hSR protein, 50 µM PLP, 1 mM MgCl2, 0.25 mM ATP, 400 mM L-serine, and 2 times serially diluted α12G (8 mM to 0.2 µM). Compound-free wells were used as blank controls in the assay. All reactions were performed in duplicates. The reaction mixtures were incubated at 37 °C for 4 h. The reaction was stopped by heating the reaction mixtures at 95 °C for 10 min and storage at 4 °C. A reaction mixture for the second-step enzymatic assay, DAAO assay, with a final volume of 100 µL was made with a 10 µL sample from hSR assay, 45 µM FAD, 10 units of HRP, 60 ng DAAO, 10 mM lead acetate, 10 mM Amplex Red^TM, and 100 mM Tris HCl (pH = 8.5). Lead acetate was used to conjugate α12G as the latter would inhibit the DAAO function in the fluorometric assay, leading to an […] of the effects of α12G on hSR. The fluorescence was detected by the TECAN Infinite 200 Microplate Reader (GMI, MN, USA). The racemization percentage was calculated as follows: racemization % = (Fsample, 20 min − Fsample, 0 min)/(Fblank, 20 min − Fblank, 0 min) × 100%. […] The two-step enzymatic assay described in Section 2.3 was designed by the formation of D-serine by hSR and the consequent oxidation of D-serine by DAAO. The inhibition of DAAO, which also degrades D-serine, by α12G will lead to overestimating the effects of racemization by hSR. […] Therefore, lead acetate was applied to conjugate α12G for the determination of racemization. […] On the contrary, when the concentration of α12G is higher than 2 mM, the racemization activity of hSR is inhibited.
# [2] = system: MK-801-induced hyperactivity; experiment: Open field test in MK-801-treated mice; assay type: in vivo, C57BL/6J male mice; details: oral gavage 20 min before 0.2 mg/kg MK-801 IP; p < 0.001, n = 8
# Procedure: (§1) For behavioral studies, α12G was dissolved in 35% PEG-400 and administrated by oral gavage 20 min prior to the MK-801 insult. MK-801 (Sigma-Aldrich, St. Louis, MO, USA) was administrated via intraperitoneal (IP) injection 20 min prior to the behavioral tests, with the dosage of 0.2 mg/kg for the open field test and novel object recognition test and 0.3 mg/kg for the prepulse inhibition test.
# C57BL/6J male mice were randomly assigned into six groups, 7–12 mice per group, (1) saline control, (2) MK-801, (3) 1 mg/kg α12G + MK-801, (4) 3 mg/kg α12G + MK-801, (5) 10 mg/kg α12G + MK-801, and (6) 30 mg/kg α12G + MK-801. The mice were placed in a Plexiglas cage (37.5 × 21.5 × 18 cm), and their spontaneous locomotor activities were measured for 60 min using a Photobeam Activity System (PAS) open field (San Diego Instruments, San Diego, CA, USA). The total photo beam breaks of each mouse were measured as an index of locomotor activity.
# [3] = system: MK-801-induced PPI deficit; experiment: Prepulse inhibition test in MK-801-treated mice; assay type: in vivo, C57BL/6J male mice; details: 1 mg/kg oral, 0.3 mg/kg MK-801 IP; PPI 6 and PPI 10; p < 0.05, n = 14
# Procedure: as §1
# C57BL/6J male mice were randomly assigned into five groups, 6–21 mice per group, (1) saline control, (2) MK-801, (3) 1 mg/kg α12G + MK-801, (4) 3.5 mg/kg α12G + MK-801, and (5) 10 mg/kg α12G + MK-801. Prepulse inhibition (PPI), a measurement of sensorimotor gating, served as a biomarker of schizophrenia. Using the SR-LAB startle apparatus (San Diego Instruments, San Diego, CA, USA), the PPI ratio with startle response was elicited by various acoustic stimuli. Each C57BL/6J male mouse was placed in an acrylic cylinder in a dark and sound-insulated chamber. With a constant 65 dB background noise, the session comprised a 5 min acclimation period followed by 4 blocks including a total of 64 trials. […] The ratio of PPI was calculated from the startle response by the following formula: PPI % = 100 × [(PA score) − (pp-P score)]/(PA score), while the PA score was averaged from PA values in the two middle blocks.
smiles,measurement,setting,value
"O=C(Oc1cc(C(=O)Oc2cc(C(=O)O[C@H]3OC[C@@H](OC(=O)c4cc(O)c(O)c(OC(=O)c5cc(O)c(O)c(OC(=O)c6cc(O)c(O)c(O)c6)c5)c4)[C@H](OC(=O)c4cc(O)c(O)c(OC(=O)c5cc(O)c(O)c(OC(=O)c6cc(O)c(O)c(O)c6)c5)c4)[C@H]3OC(=O)c3cc(O)c(O)c(OC(=O)c4cc(O)c(O)c(OC(=O)c5cc(O)c(O)c(O)c5)c4)c3)cc(O)c2O)cc(O)c1O)c1cc(O)c(O)c(O)c1 [α12G, (2R,3R,4S,5R)-tetrahydro-2H-pyran-2,3,4,5-tetrayl tetrakis(3-((3,4-dihydroxy-5-((3,4,5-trihydroxybenzoyl)oxy)benzoyl)ox)-4,5-dihydroxybenzoate)]",Concentration above which hSR racemization activity is inhibited,[1],higher than 2 mM
same,EC100 (concentration of highest racemization activity),"[1]; 400 mM L-serine, lead acetate in second step",31.25 µM
same,Enhancement of hSR racemization,[1]; maximum vs compound-free,about 8 fold
same,EC50,"[1]; falling limb of inverted U-shape curve, read-out: EC50 on hSR racemization (progressively inhibiting racemization)",221 µM
same,EC50,"[1]; rising limb of inverted U-shape curve, read-out: EC50 on hSR racemization (favoring racemization)",8.82 µM
same,Effect on MK-801-induced hyperactivity (locomotor activity),[2],alleviated the MK-801-induced hyperactivity
same,Effect on PPI deficits,[3],significantly alleviate PPI deficits
